Values after ≈ are worked out from the molar mass of the structure shown.

One series relates to HIV-1 (RF). In words: HIV RNA assay: microplate based compound evaluation in HIV-1 infected MT-2 cells. It is filed as cell-based. The following applies: Human immunodeficiency virus 1, MT2, 72 h; HIV-1 (RF) infected MT-2 cells, 3 days of culture; virus inoculum standardised to this value; read-out: IC90 value (concentration of compound required to reduce the HIV RNA level by 90%). Here is the method: MT-2 and MT-4 cells were maintained in RPMI 1640 supplemented with 5% fetal calf serum (FCS) for MT-2 cells or 10% FCS for MT-4 cells, 2 mM L-glutamine and 50 μg/mL gentamycin, all from Gibco. HIV-1 RF was propagated in MT-4 cells in the same medium. Virus stocks were prepared approximately 10 days after acute infection of MT-4 cells and stored as aliquots at −70° C. Infectious titers of HIV-1 (RF) stocks were 1-3×10^7 PFU (plaque forming units)/mL as measured by plaque assay on MT-2 cells (see below). Each aliquot of virus stock used for infection was thawed only once.
For evaluation of antiviral efficacy, cells to be infected were subcultured one day prior to infection. […]
Cell lysates or purified RNA in 3 M or 5 M GED were mixed with 5 M GED and capture probe to a final guanidinium isothiocyanate concentration of 3 M and a final biotin oligonucleotide concentration of 30 nM. […] Immobilized alkaline phosphatase activity was detected by addition of 100 μL of 0.2 mM 4-methylumbelliferyl phosphate (MUBP, JBL Scientific) in buffer δ (2.5 M diethanolamine pH 8.9 (JBL Scientific), 10 mM MgCl2, 5 mM zinc acetate dihydrate and 5 mM N-hydroxyethyl-ethylene-diamine-triacetic acid). […] Fluorescence at […] was measured using a microplate fluorometer (Dynateck) exciting at […]. […]

`CN1CC(=O)Nc2ccc(Cl)cc2C1(C#CC1CC1)C(F)(F)F` (stereo not drawn) [compound 175, 7-Chloro-4-methyl-5-(cyclopropylethynyl)-1,5-dihydro-5-(trifluoromethyl)-1,4-benzodiazepin-2-one]: the melting point (commonly the temperature, or range, at which the solid turns liquid) was in the range of 135 to 136 °C.
On the same count and under the same terms, the figure for `CCCCCC1(C(F)(F)F)N=C(CC(C)C)C(=O)Nc2ccc(Cl)cc21` (stereo not drawn) [compound 176, 7-Chloro-3-(2-methylpropyl)-5-pentyl-1,5-dihydro-5-(trifluoromethyl)-1,4-benzodiazepin-2-one] is 94 to 95 °C.
On the same count and under the same terms, the figure for `CCCCCC1(C(F)(F)F)N=CC(=O)Nc2ccc(Cl)cc21` (stereo not drawn) [compound 179, 7-Chloro-5-pentyl-1,5-dihydro-5-(trifluoromethyl)-1,4-benzodiazepin-2-one] is 142 to 143 °C; for `Cc1cccc(F)c1CN1CC(=O)Nc2ccc(Cl)cc2C1C(F)(F)F` (stereo not drawn) [compound 180, 7-Chloro-4-(2-fluoro-6-methylbenzyl)-1,5-dihydro-5-(trifluoromethyl)-1,4-benzodiazepin-2-one] it is 196 to 197 °C.
On the same count and under the same terms, under `CCCCCC1(C(F)(F)F)N=C(C)C(=O)Nc2ccccc21` (stereo not drawn) [compound 181, 3-Methyl-5-pentyl-1,5-dihydro-5-(trifluoromethyl)-1,4-benzodiazepin-2-one] stands 139 to 140 °C; under `CCC1=NC(C#CC2CC2)(C(F)(F)F)c2ccccc2NC1=O` (stereo not drawn) [compound 186, 3-Ethyl-5-(cyclopropylethynyl)-1,5-dihydro-5-(trifluoromethyl)-1,4-benzodiazepin-2-one], 181 to 182 °C.
Consider `CCCCCC1(C(F)(F)F)N=CC(=O)Nc2ccc(Cl)cc21` (stereo not drawn) [compound 187, 7-Chloro-5-pentyl-1,5-dihydro-5-(trifluoromethyl)-1,4-benzodiazepin-2-one], for which the melting point was in the range of 153 to 155 °C.
Turning to `CC(C)CCC1(C(F)(F)F)N=CC(=O)Nc2ccc(Cl)cc21` (stereo not drawn) [compound 188, 7-Chloro-5-(3-methylbutyl)-1,5-dihydro-5-(trifluoromethyl)-1,4-benzodiazepin-2-one], the melting point was in the range of 150 to 152 °C.
On the same count and under the same terms, under `CC(C)CCC1(C(F)(F)F)N=CC(=O)Nc2ccc(Cl)cc21` (stereo not drawn) [compound 189, 7-Chloro-5-(3-methylbutyl)-1,5-dihydro-5-(trifluoromethyl)-1,4-benzodiazepin-2-one] stands 151 to 153 °C.
Still for that read-out and setting: under `O=C1C=NC(Cc2ccccc2)(C(F)(F)F)c2cc(Cl)ccc2N1` (stereo not drawn) [compound 190, 7-Chloro-5-benzyl-1,5-dihydro-5-(trifluoromethyl)-1,4-benzodiazepin-2-one] stands 160 to 162 °C; under `O=C1C=NC(/C=C/C2CC2)(C(F)(F)F)c2cc(Cl)ccc2N1` (stereo not drawn) [compound 191, 7-Chloro-5-(2-cyclopropyl-E-ethenyl)-1,5-dihydro-5-(trifluoromethyl)-1,4-benzodiazepin-2-one], 150 to 153 °C.
On the same count and under the same terms, the figure for `CCCCCCC1(C(F)(F)F)N=CC(=O)Nc2ccc(Cl)cc21` (stereo not drawn) [compound 192, 7-Chloro-5-hexyl-1,5-dihydro-5-(trifluoromethyl)-1,4-benzodiazepin-2-one] is 115 to 120 °C; for `O=C1C=NC(CCC2CC2)(C(F)(F)F)c2cc(Cl)ccc2N1` (stereo not drawn) [compound 193, 7-Chloro-5-(2-cyclopropylethyl)-1,5-dihydro-5-(trifluoromethyl)-1,4-benzodiazepin-2-one] it is 152 to 155 °C.
Consider `CC1=NC(CCC2CC2)(C(F)(F)F)c2cc(Cl)ccc2NC1=O` (stereo not drawn) [compound 194, 7-Chloro-3-methyl-5-(2-cyclopropylethyl)-1,5-dihydro-5-(trifluoromethyl)-1,4-benzodiazepin-2-one], for which the melting point was in the range of 146 to 148 °C.
The same measure, in the same setting: under `O=C1C=NC(C#CC2CC2)(C(F)(F)F)c2c(ccc(F)c2F)N1` (stereo not drawn) [compound 195, 6,7-Difluoro-5-(2-cyclopropylethynyl)-1,5-dihydro-5-(trifluoromethyl)-1,4-benzodiazepin-2-one] stands 185 to 187 °C.
The same measure, in the same setting: the figure for `O=C1C=NC(CC2CC2)(C(F)(F)F)c2cc(Cl)ccc2N1` (stereo not drawn) [compound 196, 7-Chloro-5-(cyclopropylmethyl)-1,5-dihydro-5-(trifluoromethyl)-1,4-benzodiazepin-2-one] is 105 to 108 °C; for `O=C1C=NC(CCCC(F)(F)F)(C(F)(F)F)c2cc(Cl)ccc2N1` (stereo not drawn) [compound 197, 7-Chloro-5-(4,4,4-trifluorobutyl)-1,5-dihydro-5-(trifluoromethyl)-1,4-benzodiazepin-2-one] it is 178 to 180 °C.
The same measure, in the same setting: under `COc1ccc2c(c1)C(C#CC1CC1)(C(F)(F)F)N=CC(=O)N2` (stereo not drawn) [compound 198, 7-Methoxy-5-(cyclopropylethynyl)-1,5-dihydro-5-(trifluoromethyl)-1,4-benzodiazepin-2-one] stands 145 to 146 °C; under `O=C1C=NC(C#CC2CC2)(C(F)(F)F)c2cc(F)ccc2N1` (stereo not drawn) [compound 199, 7-Fluoro-5-(cyclopropylethynyl)-1,5-dihydro-5-(trifluoromethyl)-1,4-benzodiazepin-2-one], 175 to 178 °C; under `O=C1C=NC(/C=C\C2CC2)(C(F)(F)F)c2cc(F)ccc2N1` (stereo not drawn) [compound 200, 7-Fluoro-5-(2-cyclopropyl-Z-ethenyl)-1,5-dihydro-5-(trifluoromethyl)-1,4-benzodiazepin-2-one], 158 to 160 °C.
In turn, `O=C1C=NC(CCC(F)(F)F)(C(F)(F)F)c2c(ccc(F)c2F)N1` (stereo not drawn) [compound 201, 6,7-Difluoro-5-(3,3,3-trifluoropropyl)-1,5-dihydro-5-(trifluoromethyl)-1,4-benzodiazepin-2-one] returned a melting point of 160 to 163 °C.
The compound `O=C1C=NC(Cc2ccccn2)(C(F)(F)F)c2cc(Cl)ccc2N1` (stereo not drawn) [compound 202, 7-Chloro-5-(2-pyridylmethyl)-1,5-dihydro-5-(trifluoromethyl)-1,4-benzodiazepin-2-one] registered a melting point of 137 to 140 °C.
In turn, `CCCCC1(C(F)(F)F)N=CC(=O)Nc2ccc(Cl)cc21` (stereo not drawn) [compound 203, 7-Chloro-5-butyl-1,5-dihydro-5-(trifluoromethyl)-1,4-benzodiazepin-2-one] registered a melting point of 174 to 176 °C.
`Nc1ccn([C@H]2CC[C@@H](CO)O2)c(=O)n1` [ddC, 2′,3′-dideoxycytidine]: in the series with HIV-1 (RF), the IC90 was 0.2 µg/mL (≈ 0.947 µM).
